Series [1] concerns rabbit CECs. Description: Rabbit lens phacoemulsification model with NAM-containing perfusate. Conditions: for corneal transparency / edema: 2 days after surgery; for corneal transparency / edema / recovery of corneal thickness / protective effect on CECs in phacoemulsification: NAM versus Gln in perfusate; for corneal transparency / edema / recovery of corneal thickness: FIG. 7; for protective effect on CECs in phacoemulsification: conclusion. Type of series: in vivo, New Zealand white rabbits. As to the method:
Animals: New Zealand white rabbits (age, 1.5 years; weight, 5-7 kg) were purchased from Jinan Xilingjiao Biological Co., Ltd. New Zealand white rabbits were kept in a pathogen-free environment in the animal house of the Eye Institute of Shandong First Medical University.
Animal model: the pupils were dilated three times with 0.5% compound tropicamide eye drops. Sedation was performed first, and the rabbits were anesthetized according to 20 mg/kg intramuscular injection of xylazine hydrochloride injection and 3% pentobarbital sodium injection (15 mg/kg) intravenously at the ear margin. The right eye of each rabbit was subjected to phacoemulsification for lens removal using the WHITESTAR Signature® Phacoemulsification System (Signature, AMO, USA). The left eye was used as the normal eye. A 3.0-mm clear corneal tunnel incision was made at the position of 11 to 12 o'clock, and continuous curvilinear capsulorhexis was performed in the center of the anterior capsular membrane of the lens, with a torn capsule diameter of approximately 5.0 mm. Phacoemulsification was then performed to suction out the lens contents, including the nucleus of the lens and the residual lens cortex, with the setting of ultrasonication energy of 30-50% and the ultrasonication time of 4-6 min. At the end of the procedure, the New Zealand white rabbits were administered with tobramycin and dexamethasone eye ointment in the conjunctival sac.
Perfusate: balanced salt solution containing 1 mM NAM (refers to compound electrolyte intraocular irrigating solution, Shike®, Shenyang Xingqi Pharmaceutical Co., Ltd.): NAM was added to the balanced salt solution until the concentration of NAM in the perfusate was 1 mM; balanced salt solution containing 2.5 mM NAM: NAM was added to the balanced salt solution until the concentration of NAM in the perfusate was 2.5 mM; balanced salt solution containing 5 mM NAM: NAM was added to the balanced salt solution until the concentration of NAM in the perfusate was 5 mM; balanced salt solution alone as control group: an equal amount of PBS was added to the balanced salt solution.
Immunofluorescence staining: immunofluorescence detection of the expression of functional proteins ZO1 and ATP1A1.
Alizarin Red Staining: gross corneas of New Zealand rabbits were collected and fixed in sterile saline. The cornea was flattened by cutting it into four flaps using ophthalmic microscopic scissors. The corneas were stained with alizarin red staining solution for 2 min, followed by washing the corneas at least three times with sterile saline. Cover slips were put on, changes in the CECs of New Zealand rabbits were observed under a microscope, image acquisition was performed, and all experiments were repeated at least 3 times. Endothelial cell density, coefficient of variation, and hexagonal ratio were determined using alizarin red-stained images of New Zealand rabbit corneas. By using an endothelial microscope by 2 uninformed observers, cell density was normalized to the area of each image in square millimeters. For each image, an area containing at least 60 cells was selected.
Slit lamp photography: changes in corneal transparency in New Zealand rabbits were observed and recorded using a slit lamp.
Corneal thickness test: corneal thickness was analyzed and measured using optical coherence tomography (OCT) to measure central corneal thickness, with no less than three New Zealand rabbits measured at each time point.
Phacoemulsification was performed on New Zealand white rabbits, where NAM-containing intraocular perfusate was used for irrigation, and perfusate of the balanced salt solution alone was used as a control.

Series [2] relates to mouse CECs. Conditions: mice treated with high IOP, reported in the literature; cited from earlier work.
For series [3], the system named is Human CECs line B4G12. Description: Cellular assay: B4G12 cell damage induced by phacoemulsification in vitro. Conditions: 1 mM, 2.5 mM and 5 mM NAM; 1 hour and 24 hours after phacoemulsification; sonication 20 seconds, energy 30%; FIG. 8. Type of series: cell-based. As to the method:
Preparation for cell culture in vitro: Human CECs line B4G12 was selected for culture, original medium was discarded, 3 mL of PBS buffer was added, 6.0 cm cell culture dish was shaken gently, rinsed twice, and PBS buffer was discarded. 1.0 mL of trypsin was added to completely cover the bottom of the dish, and the dish was placed in the incubator for 5 min. The dish gently shaken, tapped, and observed with a microscope. The adherent cells became suspended round cells, then 1.5 mL of complete medium [each 50 mL of human corneal endothelial cell basal medium (H-SFM, Creative Bioarray, New York, USA) supplemented with 1.5 mL of FBS and 0.5 mL of penicillin-streptomycin solution] was added to the flask on the laminar flow cabinet, and trypsin digestion of cells was stopped. The cells on all parts of the bottom of the flask were gently pipetted using the tip of the pipettor so that the cells became fully in suspension. The cell suspension was transferred to a 15 mL centrifuge tube and subjected to centrifugation at 1200 rpm for 5 min. After the centrifugation, the supernatant was discarded, 3 mL of complete medium was added to the centrifuge tube, and a resulting mixture was gently pipetted to eveness. The cells were allowed to resuspend sufficiently, then inoculated into 48-well cell culture plates at a cell density of 1×10^5 and incubated for 24 hours for subsequent experiments. […]

With `NC(=O)CC[C@H](N)C(=O)O` [Gln, glutamine], in series [1], the “corneal transparency / edema” value is given as “still edematous”, the “recovery of corneal thickness” value was “recovered more slowly” and the “protective effect on CECs in phacoemulsification” value is recorded as “poor protective effect”. Also, the “protective effect on CECs during high IOP treatment” value in series [2] is recorded as “protective effect on CECs in mice treated with high IOP”.
In the case of `NC(=O)c1cccnc1` [NAM, nicotinamide], in series [1], the “corneal transparency / edema” value is given as “transparent”, the “recovery of corneal thickness” value was “recovered quickly” and the “protective effect on CECs in phacoemulsification” value was “has a protective effect on CECs”. Further, the “intraocular pressure (IOP) after phacoemulsification” value in series [1] (within 7 days after surgery, versus control group, FIG. 4) was “did not cause a pathological increase in IOP within 7 days after surgery”. Also, the “apoptosis and cell survival of B4G12 cells after phacoemulsification” value in series [3] was “could inhibit apoptosis induced by phacoemulsification and promote cell survival in a concentration-dependent manner”.

The values above are taken from patent publication US20260158018A1, “PERFUSATE CONTAINING NICOTINAMIDE FOR INTRAOCULAR SURGERY, METHOD OF PREPARATION AND USE THEREOF” (EYE INSTITUTE OF SHANDONG FIRST MEDICAL UNIVERSITY …, priority 2023, published 2026).
